# Assay results published in publication PMC3185947 (British Journal of Cancer, 2011).
# Like-named read-outs stand apart in the source and are kept apart here.
# What was measured:
# [1] = system: previously treated patients with non-small cell lung cancer (NSCLC); details: cited from earlier work; for Median survival: ref Wacker et al, 2007
# [2] = system: patients with previously treated advanced NSCLC; test: Erlotinib-related toxicities (worst grade per patient), NCI CTC Version 2.0; format: in vivo, human
smiles,measurement,setting,value
C#Cc1cccc(Nc2ncnc3cc(OCCOC)c(OCCOC)cc23)c1 [erlotinib],Median PFS,"[1]; BR.21 study, 95% CI: 1.9–2.9 months, ref Shepherd et al, 2005",2.2 months
same,ORR,"[1]; BR.21 study, 95% CI: 6.4–12%, ref Shepherd et al, 2005",8.9%
same,Median survival,[1]; erlotinib-treated patients who did not experience skin toxicity,3 months
same,Median survival,[1]; erlotinib-treated patients with grade 1 skin toxicity,7 months
same,Median survival,[1]; erlotinib-treated patients with grade 2/3 skin toxicity,11 months
same,"Alopecia, grade 3–4",[2]; Total (N=42),0 (0) n (%)
same,"Alopecia, grade Any",[2]; Total (N=42),6 (14) n (%)
same,"Anorexia, grade 3–4",[2]; Total (N=42),1 (2) n (%)
same,"Anorexia, grade Any",[2]; Total (N=42),11 (26) n (%)
same,"Creatinine, grade 3–4",[2]; Total (N=42),1 (2) n (%)
same,"Creatinine, grade Any",[2]; Total (N=42),1 (2) n (%)
same,"Diarrhea, grade 3–4",[2]; Total (N=42),1 (2) n (%)
same,"Diarrhea, grade Any",[2]; Total (N=42),33 (79) n (%)
same,"Epistaxis, grade 3–4",[2]; Total (N=42),0 (0) n (%)
same,"Epistaxis, grade Any",[2]; Total (N=42),5 (12) n (%)
same,"Fatigue, grade 3–4",[2]; Total (N=42),3 (7) n (%)
same,"Fatigue, grade Any",[2]; Total (N=42),17 (40) n (%)
same,"Headache, grade 3–4",[2]; Total (N=42),1 (2) n (%)
same,"Headache, grade Any",[2]; Total (N=42),1 (2) n (%)
same,"Nausea, grade 3–4",[2]; Total (N=42),0 (0) n (%)
same,"Nausea, grade Any",[2]; Total (N=42),22 (52) n (%)
same,"Paronychia, grade 3–4",[2]; Total (N=42),1 (2) n (%)
same,"Paronychia, grade Any",[2]; Total (N=42),5 (12) n (%)
same,"Skin fissures, grade 3–4",[2]; Total (N=42),1 (2) n (%)
same,"Skin fissures, grade Any",[2]; Total (N=42),5 (12) n (%)
same,"Stomatitis, grade 3–4",[2]; Total (N=42),0 (0) n (%)
same,"Stomatitis, grade Any",[2]; Total (N=42),14 (33) n (%)
same,"Vomiting, grade 3–4",[2]; Total (N=42),0 (0) n (%)
same,"Vomiting, grade Any",[2]; Total (N=42),15 (36) n (%)
same,"Diarrhea, frequency",[2]; all 42 patients,79%
same,"Fatigue, frequency",[2]; all 42 patients,40%
same,"Nausea, frequency",[2]; all 42 patients,52 % of patients
same,"Stomatitis, frequency",[2]; all 42 patients,33%
same,"Vomiting, frequency",[2]; all 42 patients,36%
same,"Alopecia, grade 3–4",[2]; erlotinib 100–150 mg (N=4),0 (0) n (%)
same,"Alopecia, grade Any",[2]; erlotinib 100–150 mg (N=4),0 (0) n (%)
same,"Anorexia, grade 3–4",[2]; erlotinib 100–150 mg (N=4),0 (0) n (%)
same,"Anorexia, grade Any",[2]; erlotinib 100–150 mg (N=4),2 (50) n (%)
same,"Creatinine, grade 3–4",[2]; erlotinib 100–150 mg (N=4),0 (0) n (%)
same,"Creatinine, grade Any",[2]; erlotinib 100–150 mg (N=4),0 (0) n (%)
same,"Diarrhea, grade 3–4",[2]; erlotinib 100–150 mg (N=4),0 (0) n (%)
same,"Diarrhea, grade Any",[2]; erlotinib 100–150 mg (N=4),4 (100) n (%)
same,"Epistaxis, grade 3–4",[2]; erlotinib 100–150 mg (N=4),0 (0) n (%)
same,"Epistaxis, grade Any",[2]; erlotinib 100–150 mg (N=4),0 (0) n (%)
same,"Fatigue, grade 3–4",[2]; erlotinib 100–150 mg (N=4),0 (0) n (%)
same,"Fatigue, grade Any",[2]; erlotinib 100–150 mg (N=4),3 (75) n (%)
same,"Headache, grade 3–4",[2]; erlotinib 100–150 mg (N=4),0 (0) n (%)
same,"Headache, grade Any",[2]; erlotinib 100–150 mg (N=4),0 (0) n (%)
same,"Nausea, grade 3–4",[2]; erlotinib 100–150 mg (N=4),0 (0) n (%)
same,"Nausea, grade Any",[2]; erlotinib 100–150 mg (N=4),3 (75) n (%)
same,"Paronychia, grade 3–4",[2]; erlotinib 100–150 mg (N=4),0 (0) n (%)
same,"Paronychia, grade Any",[2]; erlotinib 100–150 mg (N=4),0 (0) n (%)
same,"Skin fissures, grade 3–4",[2]; erlotinib 100–150 mg (N=4),0 (0) n (%)
same,"Skin fissures, grade Any",[2]; erlotinib 100–150 mg (N=4),1 (25) n (%)
same,"Stomatitis, grade 3–4",[2]; erlotinib 100–150 mg (N=4),0 (0) n (%)
same,"Stomatitis, grade Any",[2]; erlotinib 100–150 mg (N=4),2 (50) n (%)
same,"Vomiting, grade 3–4",[2]; erlotinib 100–150 mg (N=4),0 (0) n (%)
same,"Vomiting, grade Any",[2]; erlotinib 100–150 mg (N=4),2 (50) n (%)
same,"Alopecia, grade 3–4",[2]; erlotinib 175–200 mg (N=13),0 (0) n (%)
same,"Alopecia, grade Any",[2]; erlotinib 175–200 mg (N=13),0 (0) n (%)
same,"Anorexia, grade 3–4",[2]; erlotinib 175–200 mg (N=13),0 (0) n (%)
same,"Anorexia, grade Any",[2]; erlotinib 175–200 mg (N=13),0 (0) n (%)
same,"Creatinine, grade Any",[2]; erlotinib 175–200 mg (N=13),1 (8) n (%)
same,"Diarrhea, grade 3–4",[2]; erlotinib 175–200 mg (N=13),0 (0) n (%)
same,"Diarrhea, grade Any",[2]; erlotinib 175–200 mg (N=13),9 (69) n (%)
same,"Epistaxis, grade 3–4",[2]; erlotinib 175–200 mg (N=13),0 (0) n (%)
same,"Epistaxis, grade Any",[2]; erlotinib 175–200 mg (N=13),0 (0) n (%)
same,"Fatigue, grade Any",[2]; erlotinib 175–200 mg (N=13),4 (31) n (%)
